Results taken from patent US6716828B1, “Compounds, methods and pharmaceutical compositions for treating cellular damage, such as neural or cardiovascular tissue damage” (Guilford Pharmaceuticals, Inc., priority 1999, dated 2004).

Legend:
PARP = PARP (Homo sapiens, UniProt P09874); settings: read-out: IC50 for inhibiting PARP; reported by Suto et al.; cited from earlier work
male Long-Evans rats = assay: Focal cerebral ischemia (right distal MCA cauterization with bilateral temporary CCA occlusion); format: in vivo; settings: for damaged volume (infarct volume): mean±SD
Experimental: Focal cerebral ischemia is produced by cauterization of the right distal MCA (middle cerebral artery) with bilateral temporary common carotid artery occlusion in male Long-Evans rats for 90 minutes. All procedures performed on the animals are approved by the University Institutional Animal Care and Use Committee of the University of Pennsylvania. A total of 42 rats (weights: 230-340 g) obtained from Charles River were used in this study. The animals fasted overnight with free access to water prior to the surgical procedure.
Two hours prior to MCA occlusion, varying amounts (control, n=14; 5 mg/kg, n=7; 10 mg/kg, n=7; 20 mg/kg, n=7; and 40 mg/kg, n=7) of the compound, 3,4-dihydro-5-[4-(1-piperidinyl)-butoxy]-1(2H)-isoquinolinone (“DPQ”) were dissolved in dimethyl sulfoxide (DMSO) using a sonicator. A volume of 1.28 ml/kg of the resulting solution was injected intraperiotoneally into fourteen rats.
The rats were then anesthetized with halothane (4% for induction and 0.8%-[…] for the surgical procedure) in a mixture of 70% nitrous oxide and 30% oxygen. The body temperature was monitored by a rectal probe and maintained at 37.5±0.5° C. with a heating blanket regulated by a homethermic blanket control unit (Harvard Apparatus Limited, Kent, U.K.). A catheter (PE-50) was placed into the tail artery, and arterial pressure was continuously monitored and recorded on a Grass polygraph recorder (Model 7D, Grass Instruments, Quincy, Mass.). Samples for blood gas analysis (arterial pH, PaO2 and PaCO2) were also taken from the tail artery catheter and measured with a blood gas analyzer (ABL 30, Radiometer, Copenhagen, Denmark). Arterial blood samples were obtained 30 minutes after MCA occlusion.
The head of the animal was positioned in a stereotaxic frame, and a right parietal incision between the right lateral canthus and the external auditory meatus was made. Using a dental drill constantly cooled with saline, a 3 mm burr hole was prepared over the cortex supplied by the right MCA. 4 mm lateral to the sagittal suture and 5 mm caudal to the coronal suture. The dura mater and a thin inner bone layer were kept, care being taken to position the probe over a tissue area devoid of large blood vessels. The flow probe (tip diameter of 1 mm, fiber separation of 0.25 mm) was lowered to the bottom of the cranial burr hole using a micromanipulator. The probe was held stationary by a probe holder secured to the skull with dental cement. The microvascular blood flow in the right parietal cortex was continuously monitored with a laser Doppler flowmeter (FloLab, Moor, Devon, U.K., and Periflux 4001, Perimed, Stockholm, Sweden).
Focal cerebral ischemia was produced by cauterization of the distal portion of the right MCA with bilateral temporary common caroud artery (CCA) occlusion by the procedure of Chen et al., “A Model of Focal Ischemic Stroke in the Rat: Reproducible Extensive Cortical Infarction”, Stroke 17:738-43 (1986) and/or Liu et al., “Polyethylene Glycol-conjugated Superoxide Dismutase and Catalase Reduce Ischemic Brain Injury”, Am. J. Physiol. 256:H589-93 (1989), both of which are hereby incorporated by reference.
Specifically, bilateral CCA's were isolated, and loops made from polyethylene (PE-10) catheter were carefully passed around the CCA's for later remote occlusion. […]

Sequence of PARP (P09874 whole entry): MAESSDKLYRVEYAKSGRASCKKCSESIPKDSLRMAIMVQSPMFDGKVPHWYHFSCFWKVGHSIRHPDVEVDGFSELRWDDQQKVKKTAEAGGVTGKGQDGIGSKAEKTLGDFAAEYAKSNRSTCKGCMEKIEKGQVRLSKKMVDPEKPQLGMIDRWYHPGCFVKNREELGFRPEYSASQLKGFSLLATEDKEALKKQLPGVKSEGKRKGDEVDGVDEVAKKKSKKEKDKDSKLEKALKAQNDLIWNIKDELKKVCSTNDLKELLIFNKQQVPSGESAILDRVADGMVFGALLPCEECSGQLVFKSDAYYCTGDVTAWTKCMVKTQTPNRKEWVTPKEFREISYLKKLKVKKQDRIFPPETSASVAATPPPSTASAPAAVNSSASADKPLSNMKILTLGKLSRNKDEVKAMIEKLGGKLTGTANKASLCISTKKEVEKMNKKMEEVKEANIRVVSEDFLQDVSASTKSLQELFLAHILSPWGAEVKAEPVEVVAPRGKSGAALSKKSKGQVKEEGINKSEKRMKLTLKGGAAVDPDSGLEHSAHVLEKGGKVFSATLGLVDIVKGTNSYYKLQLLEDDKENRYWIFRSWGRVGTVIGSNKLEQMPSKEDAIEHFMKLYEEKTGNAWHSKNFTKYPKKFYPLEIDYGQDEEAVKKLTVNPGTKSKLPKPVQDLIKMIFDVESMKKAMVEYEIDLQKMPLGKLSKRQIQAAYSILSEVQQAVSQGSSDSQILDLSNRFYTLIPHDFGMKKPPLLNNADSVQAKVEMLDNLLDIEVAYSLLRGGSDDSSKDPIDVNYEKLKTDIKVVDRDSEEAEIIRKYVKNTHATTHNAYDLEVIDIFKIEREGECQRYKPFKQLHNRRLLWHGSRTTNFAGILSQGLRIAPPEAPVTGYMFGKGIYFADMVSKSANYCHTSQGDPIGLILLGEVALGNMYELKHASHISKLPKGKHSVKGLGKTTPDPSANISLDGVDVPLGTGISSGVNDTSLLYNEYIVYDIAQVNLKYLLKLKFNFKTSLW

SMILES: O=C1NCCc2c(OCCCCN3CCCCC3)cccc21 [DPQ, 3,4-dihydro-5-[4-(1-piperidinyl)-butoxy]-1(2H)-isoquinolinone]
- IC50 (PARP): 10 nM
- damaged volume (infarct volume) (male Long-Evans rats; 5 mg/kg i.p. 2 h before and 2 h after MCA occlusion, p<0.001 vs control): 106.7±23.2 mm^3
- damaged volume (infarct volume) (male Long-Evans rats; 10 mg/kg i.p. 2 h before and 2 h after MCA occlusion, p<0.001 vs control): 76.4±16.8 mm^3
- damaged volume (infarct volume) (male Long-Evans rats; 20 mg/kg i.p. 2 h before and 2 h after MCA occlusion, p<0.01 vs control): 110.2±42.0 mm^3
- damaged volume (infarct volume) (male Long-Evans rats; 40 mg/kg i.p. 2 h before and 2 h after MCA occlusion, not significant vs control): 135.6±44.8 mm^3
- infarct volume, overall effect of in vivo administration (male Long-Evans rats; focal cerebral ischemia model in the rat): substantial reduction in infarct volume
